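Compound exposure: 48 hours, 5 concentrations, 96-well plates. The concentration for 50% growth inhibition is given as GI50. Definition used: TGI = concentration required for complete inhibition of growth.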
Legend:
Experiment in all cases: NCI tumour cell line growth inhibition, 48 h
786-0 renal = system: 786-0 renal
A498 renal = system: A498 renal
A549 NSCLC = system: A549 NSCLC
ACHN renal = system: ACHN renal
BT-549 breast = system: BT-549 breast
CAKI-1 renal = system: CAKI-1 renal
CCRF-CEM leukemia = system: CCRF-CEM leukemia
COLO 205 colon = system: COLO 205 colon
DU-145 prostate = system: DU-145 prostate
EKVX NSCLC = system: EKVX NSCLC
HCC-2998 colon = system: HCC-2998 colon
HCT-116 colon = system: HCT-116 colon
HCT-15 colon = system: HCT-15 colon
HL-60(TB) leukemia = system: HL-60(TB) leukemia
HOP-62 NSCLC = system: HOP-62 NSCLC
HOP-92 NSCLC = system: HOP-92 NSCLC
HS 578T breast = system: HS 578T breast
HT29 colon = system: HT29 colon
IGROV1 ovarian = system: IGROV1 ovarian
K-562 leukemia = system: K-562 leukemia
KM12 colon = system: KM12 colon
LOX IMVI melanoma = system: LOX IMVI melanoma
M14 melanoma = system: M14 melanoma
MALME-3M melanoma = system: MALME-3M melanoma
MCF7 breast = system: MCF7 breast
MDA-MB-231 breast = system: MDA-MB-231 breast
MDA-MB-435 = system: MDA-MB-435
MOLT-4 leukemia = system: MOLT-4 leukemia
NCI-H226 lung = system: NCI-H226 lung
NCI-H23 lung = system: NCI-H23 lung
NCI-H460 lung = system: NCI-H460 lung
NCI-H522 lung = system: NCI-H522 lung
NCI/ADR-RES ovarian = system: NCI/ADR-RES ovarian
OVCAR-3 ovarian = system: OVCAR-3 ovarian
OVCAR-4 ovarian = system: OVCAR-4 ovarian
OVCAR-5 ovarian = system: OVCAR-5 ovarian
OVCAR-8 ovarian = system: OVCAR-8 ovarian
PC-3 prostate = system: PC-3 prostate
RPMI-8226 leukemia = system: RPMI-8226 leukemia
RXF 393 renal = system: RXF 393 renal
SF-268 CNS = system: SF-268 CNS
SF-295 CNS = system: SF-295 CNS
SF-539 CNS = system: SF-539 CNS
SK-MEL-2 melanoma = system: SK-MEL-2 melanoma
SK-MEL-28 melanoma = system: SK-MEL-28 melanoma
SK-MEL-5 melanoma = system: SK-MEL-5 melanoma
SK-OV-3 ovarian = system: SK-OV-3 ovarian
SN12C renal = system: SN12C renal
SNB-19 CNS = system: SNB-19 CNS
SNB-75 CNS = system: SNB-75 CNS
SR leukemia = system: SR leukemia
SW-620 colon = system: SW-620 colon
T-47D breast = system: T-47D breast
TK-10 renal = system: TK-10 renal
U251 CNS = system: U251 CNS
UACC-257 melanoma = system: UACC-257 melanoma
UACC-62 melanoma = system: UACC-62 melanoma
UO-31 renal = system: UO-31 renal

COc1ccc2c(c1)c(-c1nc(-c3cn(C)c4ncccc34)cs1)cn2CCCCN1CCOCC1
GI50 (786-0 renal): 1570 nM | TGI (786-0 renal): 3440 nM | GI50 (A498 renal): 164 nM | TGI (A498 renal): 1780 nM | GI50 (A549 NSCLC): 1710 nM | TGI (A549 NSCLC): 3710 nM | GI50 (ACHN renal): 1590 nM | TGI (ACHN renal): 2990 nM | GI50 (BT-549 breast): 2300 nM | TGI (BT-549 breast): 10700 nM | GI50 (CAKI-1 renal): 1390 nM | TGI (CAKI-1 renal): 2890 nM | GI50 (CCRF-CEM leukemia): 1020 nM | TGI (CCRF-CEM leukemia): 3230 nM | GI50 (COLO 205 colon): 1690 nM | TGI (COLO 205 colon): 3560 nM | GI50 (DU-145 prostate): 1710 nM | TGI (DU-145 prostate): 5050 nM | GI50 (EKVX NSCLC): 1540 nM | TGI (EKVX NSCLC): 4770 nM | GI50 (HCC-2998 colon): 1730 nM | TGI (HCC-2998 colon): 3770 nM | GI50 (HCT-116 colon): 1800 nM | TGI (HCT-116 colon): 3910 nM | GI50 (HCT-15 colon): 627 nM | TGI (HCT-15 colon): 1470 nM | GI50 (HL-60(TB) leukemia): 1840 nM | TGI (HL-60(TB) leukemia): 4370 nM | GI50 (HOP-62 NSCLC): 1760 nM | TGI (HOP-62 NSCLC): 3640 nM | GI50 (HOP-92 NSCLC): 922 nM | TGI (HOP-92 NSCLC): 3590 nM | GI50 (HS 578T breast): 1220 nM | TGI (HS 578T breast): 5460 nM | GI50 (HT29 colon): 766 nM | TGI (HT29 colon): 1950 nM | GI50 (IGROV1 ovarian): 2660 nM | TGI (IGROV1 ovarian): 10400 nM | GI50 (K-562 leukemia): 675 nM | TGI (K-562 leukemia): 1610 nM | GI50 (KM12 colon): 1420 nM | TGI (KM12 colon): 3090 nM | GI50 (LOX IMVI melanoma): 1320 nM | TGI (LOX IMVI melanoma): 2680 nM | GI50 (M14 melanoma): 606 nM | TGI (M14 melanoma): 1280 nM | GI50 (MALME-3M melanoma): 1650 nM | TGI (MALME-3M melanoma): 3410 nM | GI50 (MCF7 breast): 1710 nM | TGI (MCF7 breast): 3670 nM | GI50 (MDA-MB-231 breast): 941 nM | TGI (MDA-MB-231 breast): 2490 nM | GI50 (MDA-MB-435): 1120 nM | TGI (MDA-MB-435): 2580 nM | GI50 (MOLT-4 leukemia): 951 nM | TGI (MOLT-4 leukemia): 2800 nM | GI50 (NCI-H226 lung): 2530 nM | TGI (NCI-H226 lung): 8810 nM | GI50 (NCI-H23 lung): 2020 nM | TGI (NCI-H23 lung): 5580 nM | GI50 (NCI-H460 lung): 1190 nM | TGI (NCI-H460 lung): 2910 nM | GI50 (NCI-H522 lung): 1770 nM | TGI (NCI-H522 lung): 3810 nM | GI50 (NCI/ADR-RES ovarian): 1720 nM | TGI (NCI/ADR-RES ovarian): 5050 nM | GI50 (OVCAR-3 ovarian): 1620 nM | TGI (OVCAR-3 ovarian): 3380 nM | GI50 (OVCAR-4 ovarian): 1710 nM | TGI (OVCAR-4 ovarian): 4940 nM | GI50 (OVCAR-5 ovarian): 1680 nM | TGI (OVCAR-5 ovarian): 4030 nM | GI50 (OVCAR-8 ovarian): 2300 nM | TGI (OVCAR-8 ovarian): 5430 nM | GI50 (PC-3 prostate): 1120 nM | TGI (PC-3 prostate): 3260 nM | GI50 (RPMI-8226 leukemia): 1250 nM | TGI (RPMI-8226 leukemia): 3890 nM | GI50 (RXF 393 renal): 1200 nM | TGI (RXF 393 renal): 2650 nM | GI50 (SF-268 CNS): 1490 nM | TGI (SF-268 CNS): 3300 nM | GI50 (SF-295 CNS): 1570 nM | TGI (SF-295 CNS): 3480 nM | GI50 (SF-539 CNS): 1560 nM | TGI (SF-539 CNS): 3020 nM | GI50 (SK-MEL-2 melanoma): 2050 nM | TGI (SK-MEL-2 melanoma): 4290 nM | GI50 (SK-MEL-28 melanoma): 1500 nM | TGI (SK-MEL-28 melanoma): 2970 nM | GI50 (SK-MEL-5 melanoma): 1670 nM | TGI (SK-MEL-5 melanoma): 3060 nM | GI50 (SK-OV-3 ovarian): 4220 nM | TGI (SK-OV-3 ovarian): 15200 nM | GI50 (SN12C renal): 3280 nM | TGI (SN12C renal): 9220 nM | GI50 (SNB-19 CNS): 1650 nM | TGI (SNB-19 CNS): 3490 nM | GI50 (SNB-75 CNS): 873 nM | TGI (SNB-75 CNS): 2670 nM | GI50 (SR leukemia): 724 nM | TGI (SR leukemia): 1980 nM | GI50 (SW-620 colon): 745 nM | TGI (SW-620 colon): 1920 nM | GI50 (T-47D breast): 7080 nM | TGI (T-47D breast): 29000 nM | GI50 (TK-10 renal): 2730 nM | TGI (TK-10 renal): 8190 nM | GI50 (U251 CNS): 1250 nM | TGI (U251 CNS): 2930 nM | GI50 (UACC-257 melanoma): 1660 nM | TGI (UACC-257 melanoma): 3280 nM | GI50 (UACC-62 melanoma): 1620 nM | TGI (UACC-62 melanoma): 3440 nM | GI50 (UO-31 renal): 1200 nM | TGI (UO-31 renal): 2560 nM

Reference: PubChem BioAssay (NCI)
